# Laboratory results taken from patent US20010041688A1, “Methods and compositions for the regulation of vasoconstriction” (priority 2000, published 2001).
# Key:
# carotid artery = experiment: Contractile tension in isolated carotid artery (isometric myograph); settings: isolated rat carotid artery; for Contractile response Emax: % of contraction evoked by 100 mM KCl
# Procedure: (§1) Preparations were equilibrated unstretched for 30 min.
# middle cerebral artery = experiment: Contractile tension in isolated middle cerebral artery (isometric myograph); settings: isolated rat middle cerebral artery; for Contractile response Emax: % of contraction evoked by 100 mM KCl; for EC50: read-out: Contractile response EC50
# Procedure: as §1
# basilar artery [1] = experiment: Contractile tension in isolated basilar artery (isometric myograph); settings: isolated rat basilar artery; for Contractile response Emax: % of contraction evoked by 100 mM KCl; for EC50: read-out: Contractile response EC50
# Procedure: as §1
# femoral artery = experiment: Contractile tension in isolated femoral artery (isometric myograph); settings: isolated rat femoral artery; for Contractile response Emax: % of contraction evoked by 100 mM KCl
# Procedure: as §1
# coronary artery = experiment: Contractile tension in isolated coronary artery (isometric myograph); settings: isolated rat coronary artery; for Contractile response Emax: % of contraction evoked by 100 mM KCl
# Procedure: as §1
# cerebral blood flow = experiment: Relative cerebral blood flow by laser Doppler flowmetry in anesthetized rats; assay type: in vivo, rat; settings: for Relative cerebral blood flow (rCBF) in cerebral cortex: 0.3 mg/kg infused into left internal carotid artery, anesthetized rats
# Procedure: Pentobarbital-anaesthetized mechanically-ventilated male rats (250-300 g, Charles River) were maintained at 37.0±0.5° C. A femoral vein and artery were cannulated to monitor mean arterial blood pressure, heart rate and arterial blood gases. The left common carotid artery was ligated. The animals were placed in a stereotaxic frame and relative cerebral blood flow (rCBF) was measured by a laser Doppler flow probe (Model PF2B, Perimed) affixed to the thinned skull above the vascular territory of the left middle cerebral artery (2 mm posterior to Bregma, 3 mm lateral to midline). Changes in rCBF were expressed as a percentage of baseline and recorded for 20 minutes beginning at the onset of drug or vehicle infusion. S1P, DHS1P or vehicle were infused (100 μl/2 minutes) into the left internal carotid artery. Some rats were pretreated with suramin via infusion (200 μl/2 min) into the left femoral vein.
# [2] = tested on: S1P-induced vasoconstriction of basilar artery; experiment: Modulation of S1P-induced vasoconstriction in isolated basilar artery; design: species or system rat
# basilar artery [3] = tested on: basilar artery; design: species or system rat
# mouse basilar arteries = experiment: Constriction of mouse basilar artery; settings: data not shown
# rabbit basilar arteries = experiment: Constriction of rabbit basilar artery; settings: data not shown
# [4] = read-out: Contractile response EC50
compound,measurement,setting,value
"NCCc1c[nH]c2ccc(O)cc12 [5-HT, 5-hydroxytryptamine]",Contractile response Emax,carotid artery,101.1 % KCl
same,EC50,carotid artery; [4],3180 nM
same,Contractile response Emax,middle cerebral artery,73.2 % KCl
same,EC50,middle cerebral artery,44 nM
same,Contractile response Emax,basilar artery [1],99.5 % KCl
same,EC50,basilar artery [1],63 nM
same,Contractile response Emax,femoral artery,133.2 % KCl
same,EC50,femoral artery; [4],122 nM
same,Contractile response Emax,coronary artery,119.3 % KCl
same,EC50,coronary artery; [4],242 nM
"CCCCCCCCCCCCCCC[C@@H](O)[C@@H](N)COP(=O)(O)O [DHS1P, dihydrosphingosine-1-phosphate]",Contractile response Emax,carotid artery,5.9 % KCl
same,Relative cerebral blood flow (rCBF) in cerebral cortex,cerebral blood flow,"reduced rCBF, although less potently"
same,Contraction (in words),basilar artery [1],less effectively than S1P
same,Contractile response Emax,basilar artery [1],58.8 % KCl
same,EC50,basilar artery [1],240 nM
same,Contractile response Emax,femoral artery,6.3 % KCl
same,Contractile response Emax,coronary artery,15.9 % KCl
Cc1ccc(C(=O)Nc2ccc(S(=O)(=O)O)c3cc(S(=O)(=O)O)cc(S(=O)(=O)O)c23)cc1NC(=O)c1cccc(NC(=O)Nc2cccc(C(=O)Nc3cc(C(=O)Nc4ccc(S(=O)(=O)O)c5cc(S(=O)(=O)O)cc(S(=O)(=O)O)c45)ccc3C)c2)c1 [suramin],S1P's effect on rCBF after suramin pretreatment,"cerebral blood flow; suramin 16 mg/kg via femoral vein, S1P 0.3 mg/kg",abolished
same,Contractile response to S1P after preincubation with suramin,"[2]; 10 μM suramin, added 30 min prior to S1P",markedly depressed
same,Contractile response to 5-HT after preincubation with suramin,basilar artery [3]; data not shown,did not modify
"CCCCCCCCCCCCC/C=C/[C@@H](O)[C@@H](N)COP(=O)(O)O [S1P, sphingosine-1-phosphate]",Constriction (in words),mouse basilar arteries,able to constrict
same,Constriction (in words),rabbit basilar arteries,able to constrict
same,Contraction (in words),carotid artery,unresponsive
same,Contractile response Emax,carotid artery,5.2 % KCl
same,Relative cerebral blood flow (rCBF) in cerebral cortex,cerebral blood flow,decreased
same,Contraction (in words),middle cerebral artery,robust contraction
same,Contractile response Emax,middle cerebral artery,77.6 % KCl
same,EC50,middle cerebral artery,350 nM
same,Contraction (in words),basilar artery [1],robust contraction
same,Contractile response Emax,basilar artery [1],96.7 % KCl
same,EC50,basilar artery [1],280 nM
same,Contraction (in words),femoral artery,unresponsive
same,Contractile response Emax,femoral artery,3.6 % KCl
same,Contraction (in words),coronary artery,weakly constricted
same,Contractile response Emax,coronary artery,16.9 % KCl
Pertussis toxin,Effect of toxin incubation on S1P-induced vasoconstriction (in words),[2]; basilar artery segments treated in vitro with toxin,did not modify
same,Response to 5-HT1 receptor agonist 5-carboxamidotryptamine after incubation with toxin,"basilar artery [3]; without toxin 92±10, n=4, p<0.05",30±2 % of KCl-evoked contraction
"[Cl-].[K+] [KCl, potassium chloride]",Contractile response to KCl,carotid artery; 100 mM KCl,2.28 mN/mm
same,Contractile response to KCl,middle cerebral artery; 100 mM KCl,1.05 mN/mm
same,Contractile response to KCl,basilar artery [1]; 100 mM KCl,1.70 mN/mm
same,Contractile response to KCl,femoral artery; 100 mM KCl,4.52 mN/mm
same,Contractile response to KCl,coronary artery; 100 mM KCl,1.87 mN/mm
CCCCCCCCCCCCC/C=C/[C@@H](O)[C@@H](N)CO [sphingosine],Contractile response to S1P after preincubation with sphingosine together with DMS,"[2]; sphingosine 10 μM plus DMS 20 μM, added 30 min prior to S1P",fully blocked
